Measured values: ChEMBL document CHEMBL5154873, “Selective degradation of PARP2 by PROTACs via recruiting DCAF16 for triple-negative breast cancer” (Eur J Med Chem, 2022)
pIC50: −log10 of the molar value. The source made the active and inactive calls. No cut-off for these calls is given here.

Assays:
MDA-MB-436 [1] = assay: Induction of cell cycle arrest in human (BRAC1-/-) MDA-MB-436 cells assessed as accumulation at G2/M phase measured after 48 hrs by flow cytometry analysis; format: functional, cell-based; conditions: dose 0.312-2.5 µM, DDE = dose-dependent effect
MDA-MB-231 [2] = assay: Induction of cell cycle arrest in human MDA-MB-231 cells assessed as accumulation at G2/M phase measured after 24 hrs by flow cytometry analysis; format: functional, cell-based; conditions: dose 0.156-1.25 µM, DDE = dose-dependent effect
MDA-MB-231 [3] = assay: In vivo antitumor activity against human MDA-MB-231 cells xenografted BALB/c mouse assessed as tumor growth inhibition at 100 mg/kg, IG measured after 21 days; format: functional; conditions: MDA-MB-231, po, 504 h, time 21 day, read-out: TGI
MDA-MB-436 [4] = assay: Antiproliferative activity against human BRCA1 -/- MDA-MB-436 cells assessed as reduction in cell viability incubated for 5 to 10 days by MTT assay; format: functional, cell-based
CAPAN-1 = assay: Antiproliferative activity against human BRCA2 -/- CAPAN-1 cells assessed as reduction in cell viability incubated for 5 to 10 days by MTT assay; format: functional, cell-based
MDA-MB-468 [5] = assay: Antiproliferative activity against human PTEN -/- MDA-MB-468 cells assessed as reduction in cell viability incubated for 5 to 10 days by MTT assay; format: functional, cell-based
MDA-MB-231 [6] = assay: Antiproliferative activity against wild type human MDA-MB-231 cells assessed as reduction in cell viability incubated for 5 to 10 days by MTT assay; format: functional, cell-based
[7] = target: T1, DDB1- and CUL4-associated factor 16/Poly [ADP-ribose] polymerase 2 (Homo sapiens, UniProt Q9UGN5+Q9NXF7); assay: Protac activity at DCAF16 E3 ligase/PARP2 in human MDA-MB-231 cells assessed as induction of PARP2 degradation at 1 uM measured after 24 hrs by Western blot analysis; format: cell-based
Target sequence in this assay (Q9NXF7 whole entry, looked up): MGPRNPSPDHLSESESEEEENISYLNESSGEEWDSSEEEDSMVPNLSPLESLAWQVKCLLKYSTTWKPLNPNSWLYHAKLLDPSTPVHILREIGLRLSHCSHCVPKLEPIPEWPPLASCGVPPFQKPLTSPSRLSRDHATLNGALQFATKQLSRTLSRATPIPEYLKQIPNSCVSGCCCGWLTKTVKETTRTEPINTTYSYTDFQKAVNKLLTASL
Target sequence in this assay (Q9UGN5 whole entry, looked up): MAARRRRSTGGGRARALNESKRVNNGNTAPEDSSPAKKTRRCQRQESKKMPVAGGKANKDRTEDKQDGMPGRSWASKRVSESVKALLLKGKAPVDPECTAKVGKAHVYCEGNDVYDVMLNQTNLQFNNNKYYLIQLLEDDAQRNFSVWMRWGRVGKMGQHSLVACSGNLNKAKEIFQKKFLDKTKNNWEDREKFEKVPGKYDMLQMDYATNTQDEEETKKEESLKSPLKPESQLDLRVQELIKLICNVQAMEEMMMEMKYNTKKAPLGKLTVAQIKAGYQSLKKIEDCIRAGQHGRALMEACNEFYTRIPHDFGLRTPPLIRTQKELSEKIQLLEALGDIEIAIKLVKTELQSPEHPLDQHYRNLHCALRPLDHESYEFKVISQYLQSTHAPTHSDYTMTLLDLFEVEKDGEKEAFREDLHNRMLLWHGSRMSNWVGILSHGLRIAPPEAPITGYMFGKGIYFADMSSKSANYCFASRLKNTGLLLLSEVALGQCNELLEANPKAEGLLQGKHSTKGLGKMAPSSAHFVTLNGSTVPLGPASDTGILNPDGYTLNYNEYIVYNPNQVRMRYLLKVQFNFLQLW

[8] = target: T1, DDB1- and CUL4-associated factor 16/Poly [ADP-ribose] polymerase 2; assay: Protac activity at DCAF16 E3 ligase/PARP2 in human MDA-MB-231 cells assessed as induction of PARP2 degradation measured after 24 hrs by Western blot analysis; format: cell-based
Target sequence in this assay (Q9UGN5 whole entry): as the sequence (Q9UGN5 whole entry, looked up) above
Target sequence in this assay (Q9NXF7 whole entry): as the sequence (Q9NXF7 whole entry, looked up) above

[9] = target: T1, DDB1- and CUL4-associated factor 16/Poly [ADP-ribose] polymerase 2; assay: Protac activity at DCAF16 E3 ligase/PARP2 in human MDA-MB-231 cells assessed as maximum degradation of PARP2 measured after 24 hrs by Western blot analysis relative to control; format: cell-based
Target sequence in this assay (Q9NXF7 whole entry, looked up): as above
Target sequence in this assay (Q9UGN5 whole entry, looked up): as the sequence (Q9UGN5 whole entry, looked up) above

[10] = target: T1, DDB1- and CUL4-associated factor 16/Poly [ADP-ribose] polymerase 2; assay: Protac activity at DCAF16 E3 ligase/PARP2 in human MDA-MB-231 cells assessed as induction of PARP2 degradation at 0.5 uM measured after 8 hrs by Western blot analysis; format: cell-based
Target sequence in this assay (Q9NXF7 whole entry, looked up): as the sequence (Q9NXF7 whole entry, looked up) above
Target sequence in this assay (Q9UGN5 whole entry, looked up): as the sequence (Q9UGN5 whole entry, looked up) above

[11] = target: T1, DDB1- and CUL4-associated factor 16/Poly [ADP-ribose] polymerase 2; assay: Protac activity at DCAF16 E3 ligase/PARP2 in human MDA-MB-231 cells assessed as induction of PARP2 degradation at 0.5 uM preincubated for 2 hrs followed by compound washout measured after 48 hrs by Western blot analysis; format: cell-based
Target sequence in this assay (Q9NXF7 whole entry, looked up): as the sequence (Q9NXF7 whole entry, looked up) above
Target sequence in this assay (Q9UGN5 whole entry, looked up): as the sequence (Q9UGN5 whole entry, looked up) above

[12] = target: Poly [ADP-ribose] polymerase 1 (Homo sapiens, UniProt P09874); assay: Inhibition of PARP1 (unknown origin)
[13] = target: Poly [ADP-ribose] polymerase 2 (Homo sapiens, UniProt Q9UGN5); assay: Inhibition of PARP2 (unknown origin)
HeLa = assay: Antiproliferative activity against human HeLa cells over expressing DCAF16 assessed as reduction in cell viability incubated for 5 to 10 days by MTT assay; format: functional, cell-based; conditions: time 5-10 day
HepG2 = assay: Antiproliferative activity against human HepG2 cells over expressing DCAF16 assessed as reduction in cell viability incubated for 5 to 10 days by MTT assay; format: functional, cell-based; conditions: time 5-10 day
SK-OV-3 = assay: Antiproliferative activity against human SK-OV-3 cells over expressing DCAF16 assessed as reduction in cell viability incubated for 5 to 10 days by MTT assay; format: functional, cell-based; conditions: time 5-10 day
NCI-H2228 = assay: Antiproliferative activity against human H2228 cells over expressing DCAF16 assessed as reduction in cell viability incubated for 5 to 10 days by MTT assay; format: functional, cell-based; conditions: time 5-10 day
NCI-H3122 = assay: Antiproliferative activity against human H3122 cells over expressing DCAF16 assessed as reduction in cell viability incubated for 5 to 10 days by MTT assay; format: functional, cell-based; conditions: time 5-10 day
SW-620 = assay: Antiproliferative activity against human SW-620 cells over expressing DCAF16 assessed as reduction in cell viability incubated for 5 to 10 days by MTT assay; format: functional, cell-based; conditions: time 5-10 day
MV4-11 = assay: Antiproliferative activity against human MV4-11 cells over expressing DCAF16 assessed as reduction in cell viability incubated for 5 to 10 days by MTT assay; format: functional, cell-based; conditions: time 5-10 day
[14] = target: T1, DDB1- and CUL4-associated factor 16/Poly [ADP-ribose] polymerase 2; assay: Protac activity at DCAF16 E3 ligase/PARP2 in human MDA-MB-231 cells assessed as induction of PARP2 degradation in nucleus at 0.5 uM measured after 24 hrs by DAPI staining based immunofluorescence microscopy; format: cell-based
Target sequence in this assay (Q9NXF7 whole entry, looked up): as the sequence (Q9NXF7 whole entry, looked up) above
Target sequence in this assay (Q9UGN5 whole entry, looked up): as the sequence (Q9UGN5 whole entry, looked up) above

MDA-MB-231 [15] = assay: Inhibition of colony formation in human MDA-MB-231 cells measured after 14 days by crystal violet staining based analysis; format: functional, cell-based; conditions: dose 0.312-5 µM, time 14.0 day, DDE = dose-dependent effect
L02 = assay: Cytotoxicity against human L02 cells; format: toxicity, cell-based
MDA-MB-231 [16] = assay: Induction of apoptosis in human wild type MDA-MB-231 cells at 1.25 uM measured after 48 hrs by Annexin V-FITC/PI staining based flow cytometry method; format: functional
MDA-MB-231 [17] = assay: In vivo antitumor activity against human MDA-MB-231 cells xenografted BALB/c mouse assessed as tumor growth inhibition at 12.5 mg/kg, ip measured after 21 days; format: functional; conditions: MDA-MB-231, 504 h, time 21 day, read-out: TGI
MDA-MB-231 [18] = assay: In vivo antitumor activity against human MDA-MB-231 cells xenografted BALB/c mouse assessed as tumor growth inhibition at 25 mg/kg, ip measured after 21 days; format: functional; conditions: MDA-MB-231, 504 h, time 21 day, read-out: TGI
[19] = Toxicity in BALB/c mouse xenografted with MDA-MB-231 cells assessed as morbidity at 100 mg/kg, IG measured after 21 days; format: organism-based; conditions: in vivo, po, 504 h, time 21 day
[20] = Toxicity in BALB/c mouse xenografted with MDA-MB-231 cells assessed as morbidity at 12.5 to 25 mg/kg, ip measured after 21 days; format: organism-based; conditions: in vivo, 504 h, dose 12.5-25 mg/kg, time 21 day
[21] = Toxicity in BALB/c mouse xenografted with MDA-MB-231 cells assessed as mortality at 100 mg/kg, IG measured after 21 days; format: organism-based; conditions: in vivo, po, 504 h, time 21 day
[22] = Toxicity in BALB/c mouse xenografted with MDA-MB-231 cells assessed as mortality at 12.5 to 25 mg/kg, ip measured after 21 days; format: organism-based; conditions: in vivo, 504 h, dose 12.5-25 mg/kg, time 21 day
[23] = Toxicity in BALB/c mouse xenografted with MDA-MB-231 cells assessed as change in body weight at 100 mg/kg, IG measured after 21 days; format: organism-based; conditions: in vivo, po, 504 h, time 21 day
[24] = Toxicity in BALB/c mouse xenografted with MDA-MB-231 cells assessed as change in body weight at 12.5 to 25 mg/kg, ip measured after 21 days; format: organism-based; conditions: in vivo, 504 h, dose 12.5-25 mg/kg, time 21 day
MDA-MB-231 [25] = assay: Antitumor activity against human MDA-MB-231 cells xenografted BALB/c mouse assessed as reduction in tumor weight at 25 mg/kg, ip measured after 21 days; format: functional, organism-based; conditions: time 21.0 day
[26] = Toxicity in BALB/c mouse xenografted with MDA-MB-231 cells assessed as pathological changes in heart at 25 mg/kg, ip measured after 21 days by hematoxylin and eosin staining based assay; format: organism-based; conditions: in vivo, 504 h, time 21 day
[27] = Toxicity in BALB/c mouse xenografted with MDA-MB-231 cells assessed as pathological changes in liver at 25 mg/kg, ip measured after 21 days by hematoxylin and eosin staining based assay; format: organism-based; conditions: in vivo, 504 h, time 21 day
[28] = Toxicity in BALB/c mouse xenografted with MDA-MB-231 cells assessed as pathological changes in spleen at 25 mg/kg, ip measured after 21 days by hematoxylin and eosin staining based assay; format: organism-based; conditions: in vivo, 504 h, time 21 day
[29] = Toxicity in BALB/c mouse xenografted with MDA-MB-231 cells assessed as pathological changes in lung at 25 mg/kg, ip measured after 21 days by hematoxylin and eosin staining based assay; format: organism-based; conditions: in vivo, 504 h, time 21 day
[30] = Toxicity in BALB/c mouse xenografted with MDA-MB-231 cells assessed as pathological changes in kidney at 25 mg/kg, ip measured after 21 days by hematoxylin and eosin staining based assay; format: organism-based; conditions: in vivo, 504 h, time 21 day
MDA-MB-468 [31] = assay: Potency index, ratio of IC50 of Olaparib to IC50 of test compound antiproliferative activity against human PTEN -/- MDA-MB-468 cells assessed as reduction in cell viability incubated for 5 to 10 days by MTT assay; format: functional; conditions: time 5-10 day
MDA-MB-231 [32] = assay: Potency index, ratio of IC50 of Olaparib to IC50 of test compound antiproliferative activity against wild type human MDA-MB-231 cells assessed as reduction in cell viability incubated for 5 to 10 days by MTT assay; format: functional; conditions: time 5-10 day

Chain of Poly [ADP-ribose] polymerase 2 (Q9UGN5 whole entry): as the sequence (Q9UGN5 whole entry, looked up) above
Chain of Poly [ADP-ribose] polymerase 1 (P09874 whole entry): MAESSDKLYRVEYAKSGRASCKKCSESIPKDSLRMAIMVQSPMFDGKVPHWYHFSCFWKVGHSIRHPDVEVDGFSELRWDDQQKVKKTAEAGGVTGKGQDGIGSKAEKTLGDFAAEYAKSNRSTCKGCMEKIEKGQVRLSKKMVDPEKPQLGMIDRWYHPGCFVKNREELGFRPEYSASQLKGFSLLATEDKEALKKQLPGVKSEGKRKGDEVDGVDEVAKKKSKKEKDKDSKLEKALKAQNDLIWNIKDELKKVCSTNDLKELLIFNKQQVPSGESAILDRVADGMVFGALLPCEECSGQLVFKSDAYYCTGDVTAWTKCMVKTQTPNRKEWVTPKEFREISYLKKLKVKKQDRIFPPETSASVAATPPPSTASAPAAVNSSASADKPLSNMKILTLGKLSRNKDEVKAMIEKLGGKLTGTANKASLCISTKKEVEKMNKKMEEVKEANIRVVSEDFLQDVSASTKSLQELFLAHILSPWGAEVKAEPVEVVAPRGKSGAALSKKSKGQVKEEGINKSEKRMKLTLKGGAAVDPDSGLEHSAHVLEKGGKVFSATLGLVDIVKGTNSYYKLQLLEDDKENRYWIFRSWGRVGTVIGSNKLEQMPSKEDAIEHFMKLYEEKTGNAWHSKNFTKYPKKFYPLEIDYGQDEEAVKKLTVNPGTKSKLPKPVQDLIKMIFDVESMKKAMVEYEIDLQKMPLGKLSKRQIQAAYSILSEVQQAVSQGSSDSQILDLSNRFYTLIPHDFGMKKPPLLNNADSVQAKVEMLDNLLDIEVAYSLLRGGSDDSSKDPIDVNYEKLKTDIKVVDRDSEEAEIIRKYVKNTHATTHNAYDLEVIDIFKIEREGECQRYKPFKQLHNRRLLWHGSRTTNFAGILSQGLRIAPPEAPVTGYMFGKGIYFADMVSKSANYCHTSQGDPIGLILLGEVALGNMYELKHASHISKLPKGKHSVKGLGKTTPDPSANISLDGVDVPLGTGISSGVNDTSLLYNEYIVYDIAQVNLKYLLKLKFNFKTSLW

For `O=C(c1cc(Cc2n[nH]c(=O)c3ccccc23)ccc1F)N1CCN(C(=O)C2CC2)CC1` [OLAPARIB], the Activity (MDA-MB-436 [1]) was “Dde”, the Activity (MDA-MB-231 [2]) was “Dde” and the inhibition in vivo at 100 mg/kg (MDA-MB-231 [3]) was 57.8%.
With `O=C(COc1ccc2c(c1)CCCN2C(=O)CCl)NCCCCCCCCCC(=O)N1CCN(C(=O)c2cc(Cc3n[nH]c(=O)c4ccccc34)ccc2F)CC1` the pIC50 (MDA-MB-436 [4]) was 7.59, the pIC50 (CAPAN-1) was 7.21 and the pIC50 (MDA-MB-468 [5]) was 6.16. The pIC50 (MDA-MB-231 [6]) was 6.28, the Activity [7] was “Active” and the DC50 [8] was 2000 nM. The Activity [9] was over 92%, the Activity [10] was “Active” and the Activity [11] was “Active”. For the same compound, the pIC50 [12] was 8.56, the pIC50 [13] was 9.49 and the inhibition (HeLa) was “Active”. For the same compound, the inhibition (HepG2) was “Active”, the inhibition (SK-OV-3) was “Active” and the inhibition (NCI-H2228) was “Active”. The inhibition (NCI-H3122) was “Active”, the inhibition (SW-620) was “Active” and the inhibition (MV4-11) was “Active”. The Activity [14] was “Active”, the inhibition (MDA-MB-231 [15]) was “Dde” and the Activity (L02) was “Non-Toxic”. The Activity (MDA-MB-436 [1]) was “Dde”, the Activity (MDA-MB-231 [2]) was “Dde” and the Activity (MDA-MB-231 [16]) was 20%. For the same compound, the inhibition in vivo at 100 mg/kg (MDA-MB-231 [3]) was 63.5%, the inhibition in vivo at 12.5 mg/kg (MDA-MB-231 [17]) was 82.9% and the inhibition in vivo at 25 mg/kg (MDA-MB-231 [18]) was 98.3%. For the same compound, the Activity [19] was “Non-Toxic”, the Activity [20] was “Non-Toxic” and the Activity [21] was “Non-Toxic”. For the same compound, the Activity [22] was “Non-Toxic”, the Activity [23] was “Non-Toxic” and the Activity [24] was “Non-Toxic”. The Activity (MDA-MB-231 [25]) was “Active”, the Activity [26] was “Non-Toxic” and the Activity [27] was “Non-Toxic”. The Activity [28] was “Non-Toxic”, the Activity [29] was “Non-Toxic” and the Activity [30] was “Non-Toxic”. For the same compound, the “Ratio IC50” value (MDA-MB-468 [31]) was 6 and the “Ratio IC50” value (MDA-MB-231 [32]) was 6.
